The source of these data is PubChem BioAssay AID1421 (Emory University Molecular Libraries Screening Center, 2008).

SMILES strings stand for the structures. The source made the active and inactive calls. How the calls were made is not given here.

The target in the assay is Prostaglandin E2 receptor EP2 subtype (Homo sapiens) (UniProt P43116). Nature of the assay: EP2 receptor modulators, dose response, cell-based, human EP2, PGE2 EC50 shift (AID 1421). As to conditions: EP2-expressing cells, PGE2 EC50 shift by compound; for PGE2 EC50 with compound: measured here: PGE2 EC50 at 6.7 uM compound.
Prostaglandin E2 receptor EP2 subtype (Homo sapiens), sequence (P43116 whole entry, looked up): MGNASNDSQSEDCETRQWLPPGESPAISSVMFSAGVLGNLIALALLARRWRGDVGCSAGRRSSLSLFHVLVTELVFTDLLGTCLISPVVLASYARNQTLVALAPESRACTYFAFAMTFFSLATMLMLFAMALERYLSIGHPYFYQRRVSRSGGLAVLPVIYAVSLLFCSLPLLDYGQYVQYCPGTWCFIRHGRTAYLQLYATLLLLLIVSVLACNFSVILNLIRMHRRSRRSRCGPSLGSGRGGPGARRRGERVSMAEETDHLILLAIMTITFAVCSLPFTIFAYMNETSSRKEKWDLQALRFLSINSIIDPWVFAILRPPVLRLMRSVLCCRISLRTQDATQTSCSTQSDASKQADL

`Brc1ccc(Cn2c(-c3ccc(Br)o3)nc3ccccc32)o1`: the PGE2 EC50 with compound turned out to be 2.59 nM.

On to `CCOC1(OCC)C(c2ccc(N)cc2)C(C#N)(C#N)C1(OCC)OCC` (stereo unspecified), for which the PGE2 EC50 with compound was 0.31 nM.

With `Cc1nc2ccccn2c1C(=O)CSc1ccc(Cl)cc1Cl`, the PGE2 EC50 with compound was 1.47 nM.

In the case of `CCOC(=O)c1ccccc1NC(=O)COc1ccccc1`, the PGE2 EC50 with compound came to 1.04 nM.

For `Cc1nn2c(N3CCN(C(=O)c4ccco4)CC3)cc(C(C)(C)C)nc2c1-c1ccccc1`, the PGE2 EC50 with compound stood at 1.15 nM.

For the compound `C/C=C/Cn1c(SCc2ccc(C)cc2)nc2c1c(=O)[nH]c(=O)n2C`, the PGE2 EC50 with compound was 0.78 nM.

As to `O=C(NCc1ccc(F)cc1)c1ccccc1OCc1ccccc1`, the result was active and the PGE2 EC50 with compound worked out at 1.03 nM.

As to `COC(=O)C(C)Sc1ncnc2c1nnn2-c1ccc(F)cc1` (stereo unspecified), the PGE2 EC50 with compound came out at 1.11 nM.

Take `CC1=C[N+](=O)c2ccccc2[N+]1=O`: the PGE2 EC50 with compound came out at 0.94 nM.

As for `Cc1ccc(N(CC(=O)N/N=C/c2ccc(OC3CSC3)cc2)S(=O)(=O)c2ccccc2)cc1`, the PGE2 EC50 with compound is 1.01 nM.

Take `Cc1cc(NC(=O)C2=C(O)c3ccccc3S(=O)(=O)N2C)no1`: the PGE2 EC50 with compound came to 1.8 nM.

On to `O=c1c2ccccc2nc(/C=C/c2ccccc2)n1CCc1ccccc1`, for which the PGE2 EC50 with compound came out at 0.92 nM.

With `CC(C)NC(=S)NN=C1CCCCCCCCCCC1`, the PGE2 EC50 with compound stood at 0.97 nM.

`CC(=O)Nc1ccc(C2=NN(c3ccccc3)C(c3cccs3)C2)cc1` (stereo unspecified): the PGE2 EC50 with compound was found to be 0.65 nM.

Consider `CCCOc1ccccc1Cn1c(=O)oc2ccc(C)cc21`, for which the PGE2 EC50 with compound came to 2.64 nM.

On to `Cc1ccc(-c2csc(Nc3ccc(C(=O)O)cc3)[n+]2Cc2ccccc2)cc1`, for which the PGE2 EC50 with compound was 0.77 nM.

Turning to `CCCSc1nc(N2CCCC2)c2c(c1C#N)CC(C)(C)OC2`, the PGE2 EC50 with compound was determined as 1.15 nM.

Regarding `C/C(Cl)=C/Cn1c(SC(C)C)nc2c1c(=O)[nH]c(=O)n2C`, the PGE2 EC50 with compound was 0.95 nM.

On to `COc1cc2c(cc1OC)CN(c1ccc(-c3ccccc3OC)nn1)CC2`, for which the PGE2 EC50 with compound worked out at 1.64 nM.

As for `O=C1CCC(C(=O)OCC(=O)N2N=C3/C(=C/c4ccccc4)CCCC3C2c2ccccc2)N1` (stereo unspecified), the PGE2 EC50 with compound turned out to be 1.47 nM.

As to `CCOP(=O)(OCC)c1nc(-c2cccc3ccccc23)oc1N1CCCCC1`, the PGE2 EC50 with compound worked out at 1.11 nM.

On to `COc1cc(C)c(NC(c2ccccc2)c2ccccc2)cc1OC`, for which the PGE2 EC50 with compound was determined as 1.5 nM.

As to `CCCCc1n[nH]c(=S)n1Cc1ccc(Cl)cc1`, the PGE2 EC50 with compound came out at 1.57 nM.

On to `O=C(CN1CCCCCC1)Nc1ccccc1Oc1ccccc1`, for which the PGE2 EC50 with compound is 0.96 nM.

For the compound `CCCCC(=O)C1CCN(Cc2ccccc2)CC1`, the PGE2 EC50 with compound was determined as 0.89 nM.

Turning to `CCOC(=O)c1c(NC(=O)c2cccs2)sc2c1CCN(C(=O)OCC)C2`, the PGE2 EC50 with compound was found to be 1.53 nM.

Consider `CC1CCc2c(sc(N)c2C(=O)OC(C)C)C1` (stereo unspecified), for which the outcome was active and the PGE2 EC50 with compound was 0.91 nM.

`Cc1noc(C)c1CSc1nc2ccccc2c(=O)n1-c1ccccc1`: the outcome was active and the PGE2 EC50 with compound was determined as 1.3 nM.

With `C/C(CCc1oc2ccccc2c1-c1ccc(C)o1)=N/O`, the PGE2 EC50 with compound was 0.95 nM.

`CCSc1nnc(-c2ccc(Cl)cc2)c2ccccc12`: the PGE2 EC50 with compound stood at 0.76 nM.

With `COC(=O)c1c(C)nc2ccccc2c1-c1ccccc1`, the PGE2 EC50 with compound was 1.54 nM.

Turning to `CCOC(=O)c1c(NC(=O)c2ccoc2C)sc(C(=O)N(C)C)c1C`, the PGE2 EC50 with compound was found to be 0.8 nM.

As to `COC(=O)c1cc(-c2ccc3c(c2)OCO3)nc2ccccc12`, the PGE2 EC50 with compound worked out at 0.7 nM.

For `COc1ccc(Cc2n[nH]c(=S)n2Cc2ccccc2)cc1Cl`, the PGE2 EC50 with compound was 1.41 nM.

`CCCCn1c(-c2csc(CCC)c2)n[nH]c1=S`: the PGE2 EC50 with compound turned out to be 1.28 nM.

For the compound `CCOc1ccc(OCC)c(NC(=O)CN2CCN(c3cc(C)ccc3C)CC2)c1`, the PGE2 EC50 with compound was found to be 0.8 nM.

On to `O=S(Cc1cc(Sc2ccccc2)nc(-c2ccccc2)n1)c1ccccc1` (stereo unspecified), for which the PGE2 EC50 with compound stood at 1.15 nM.

Regarding `CCc1ccccc1NC(=O)/C(=C/c1ccccc1)c1ccccc1`, the result was active and the PGE2 EC50 with compound was found to be 1.14 nM.

For `CCOC(=O)c1sc(NC(=O)CCN2CC(C)OC(C)C2)c(C(=O)OCC)c1C` (stereo unspecified), the PGE2 EC50 with compound came to 1.11 nM.

Take `COc1ccc(-c2c(C(C)=O)c(C)nc3sc4c(c23)NC(c2ccccc2)NC4=O)cc1` (stereo unspecified): the PGE2 EC50 with compound worked out at 1.87 nM.

`CSc1nc(NCc2ccco2)c2ccccc2n1`: the PGE2 EC50 with compound is 1.3 nM.

As to `CCOC(=O)C1=CN(CC2CCCO2)C=C(C(=O)OCC)C1c1ccccc1C(F)(F)F` (stereo unspecified), the PGE2 EC50 with compound came to 1.3 nM.

`CC(C)c1ccc(OCC(=O)NC(=S)Nc2ccc3c4c(cccc24)CC3)cc1`: the PGE2 EC50 with compound amounted to 3.13 nM.

On to `Cc1ccccc1Nc1c(-c2ccccn2)nc2ccccn12`, for which the PGE2 EC50 with compound was determined as 1.55 nM.

Regarding `O=C(O)c1csc(N/N=C/c2ccc(Br)cc2)n1`, the PGE2 EC50 with compound was found to be 0.89 nM.

`CCC(=O)Oc1ccc2c(C)cc(=O)oc2c1C(=O)c1ccccc1`: the PGE2 EC50 with compound is 1 nM.

Regarding `COc1cccc(/C=N/c2oc(-c3ccccc3)cc2C#N)c1O`, the PGE2 EC50 with compound was found to be 1.17 nM.

As to `O=C(N/N=C/c1cccc(F)c1)NC1CCCCC1`, the result was active and the PGE2 EC50 with compound is 1.1 nM.

For the compound `O=c1cc(N2CCCCC2)c(-c2ccccc2)nn1Cc1cccc(Cl)c1`, the PGE2 EC50 with compound came out at 0.32 nM.

Regarding `COC(=O)c1c(-c2ccc(F)cc2)csc1NC(=O)C1CCCO1` (stereo unspecified), the PGE2 EC50 with compound was determined as 2.48 nM.

For the compound `CCCCCCn1c(SCC(C)C)nc2c1c(=O)[nH]c(=O)n2C`, the PGE2 EC50 with compound came to 1.08 nM.

Take `CCc1nnc2n1N=C(c1ccc(-c3cc(Cl)ccc3Cl)o1)CS2`: the PGE2 EC50 with compound was 0.89 nM.

On to `C=CCc1cc(C=O)cc(OCC)c1OCc1ccc(Cl)cc1`, for which the PGE2 EC50 with compound was 1.29 nM.

On to `O=c1cc(N2CCCCC2)c(-c2ccccc2)nn1Cc1c(Cl)cccc1Cl`, for which the PGE2 EC50 with compound was 0.71 nM.

As for `CC12CCCC(O)(C1)C1CC(C)(C)C1CC2` (stereo unspecified), the PGE2 EC50 with compound worked out at 1.55 nM.

Turning to `CCSc1ccccc1C(=O)n1nnc2ccccc21`, the PGE2 EC50 with compound amounted to 1.77 nM.

On to `CC1CCC(C(C)C)C(OC(=O)COC(=O)c2ccc(=O)[nH]c2)C1` (stereo unspecified), for which the result was active and the PGE2 EC50 with compound was determined as 1.4 nM.

Consider `CC(C)CCNC(=O)c1c(N)n(CC2CCCO2)c2nc3ccccc3nc12` (stereo unspecified), for which the result was active and the PGE2 EC50 with compound is 0.95 nM.

In the case of `CCOC(=O)C1CCN(c2c(-c3ccccc3)c3cc(Cl)ccc3[nH]c2=O)CC1`, the outcome was active and the PGE2 EC50 with compound was determined as 1.03 nM.

In the case of `O=S(=O)(c1ccccc1)c1nc(-c2ccco2)oc1N1CCCCCC1`, the PGE2 EC50 with compound worked out at 1.21 nM.

In the case of `COc1ccc(C)cc1NC(=O)C1CC(=O)OC12CCCCC2` (stereo unspecified), the PGE2 EC50 with compound was 0.67 nM.

In the case of `C=CCc1cccc(/C=N/c2nc3ccccc3n2CC)c1O`, the PGE2 EC50 with compound amounted to 0.63 nM.

`COC(=O)c1[nH]c2ccccc2c1NS(=O)(=O)c1ccc(F)c(C)c1`: the PGE2 EC50 with compound turned out to be 0.88 nM.

For `Cc1cc2cc(CN(Cc3nnnn3C3CCCCC3)CC3CCCO3)c(=O)[nH]c2cc1C` (stereo unspecified), the PGE2 EC50 with compound is 0.97 nM.

As to `OCCCNc1nc(-c2ccc(Cl)cc2)nnc1-c1ccc(Br)cc1`, the PGE2 EC50 with compound was 1.11 nM.

`CCOC(=O)c1c(NC(=O)c2ccc(Br)o2)sc(C)c1CC`: the PGE2 EC50 with compound came out at 0.94 nM.

Take `COc1cc(O)c2c(=O)cc(C)oc2c1CC=C(C)C`: the PGE2 EC50 with compound is 2.64 nM.

For the compound `COc1ccc(C2CC(c3cccs3)=NN2C(=O)c2ccc(Br)o2)cc1` (stereo unspecified), the PGE2 EC50 with compound amounted to 1.25 nM.

Consider `C=C(C)Cn1c(C)cc(C)c(S(=O)(=O)c2cccc(C)c2)c1=O`, for which the PGE2 EC50 with compound stood at 1.28 nM.

As to `CCOC(=O)c1c(-c2ccc(C)cc2)csc1NC(=O)CCN1CC(C)OC(C)C1` (stereo unspecified), the PGE2 EC50 with compound stood at 0.68 nM.

Turning to `CCOc1cc(S(=O)(=O)NCCc2cccc(C)c2)c(OCC)cc1-n1cnnn1`, the PGE2 EC50 with compound stood at 1.21 nM.

For the compound `CC1(C)Cc2ccccc2-c2nc3n(c(=O)c21)CCS3`, the PGE2 EC50 with compound came to 0.79 nM.

For the compound `C/C(=C\c1ccc(C(=O)O)cc1)c1ccc2c(c1)C(C)(C)CCC2(C)C`, the PGE2 EC50 with compound was found to be 0.79 nM.

As to `CC(C)Sc1cc(N2CCOCC2)nc(-c2ccc(Cl)cc2)n1`, the outcome was active and the PGE2 EC50 with compound stood at 1.02 nM.

As to `CCSC1=N/C(=C\c2ccccc2)C(=O)N1c1ccc(OC)cc1`, the PGE2 EC50 with compound worked out at 0.75 nM.

Turning to `O=C(N/N=C/c1ccc[nH]1)c1ccccc1OCc1ccccc1Cl`, the PGE2 EC50 with compound amounted to 2.65 nM.

Regarding `Cc1ccc(Cn2ccc(=O)c(OCc3c(Cl)cccc3Cl)c2C)cc1`, the PGE2 EC50 with compound was found to be 1.18 nM.

Take `CC[C@@H]1Cc2cc(O)ccc2C2=C1c1ccc(O)cc1C[C@H]2CC`: the PGE2 EC50 with compound amounted to 0.3 nM.

Consider `Cc1nc(SCCC(=O)O)c2ccccc2n1`, for which the PGE2 EC50 with compound came to 2.93 nM.

On to `FC(F)(F)c1nnc(-c2ccccc2)nc1Sc1ccccc1`, for which the PGE2 EC50 with compound is 0.91 nM.

On to `Cc1cc2ccccc2nc1SCC(=O)NC1CCCC1`, for which the PGE2 EC50 with compound was 1.4 nM.

`CCCc1cc(=O)[nH]c(SCC(=O)N2CCC(C(=O)OCC)CC2)n1`: the PGE2 EC50 with compound is 0.64 nM.

On to `O=C(Cc1c(F)cccc1Cl)Nc1ccccc1N1CCCCC1`, for which the PGE2 EC50 with compound came out at 2.55 nM.

In the case of `Cc1cccc(C)c1N1CCN(c2ccc3nnc(C(F)(F)F)n3n2)CC1`, the PGE2 EC50 with compound was 0.52 nM.

As for `CC1Cc2ccccc2N1CC(=O)NC(c1ccccc1)c1ccccc1` (stereo unspecified), the PGE2 EC50 with compound was 1.48 nM.

As to `Cc1ccc(C2CC2c2n[nH]c(=S)n2-c2ccc(C)cc2)cc1` (stereo unspecified), the PGE2 EC50 with compound was determined as 1.12 nM.

On to `O=C(O)COc1ccc(/C=C/c2ccc3cccc([N+](=O)[O-])c3n2)cc1`, for which the outcome was active and the PGE2 EC50 with compound turned out to be 2.11 nM.

For the compound `COc1ccc(-c2nn3c(-c4ccccc4)nnc3s2)cc1`, the PGE2 EC50 with compound amounted to 0.66 nM.

On to `Cc1ccc(OCC(=O)NNC(=O)C2CCN(c3ncccn3)CC2)cc1`, for which the PGE2 EC50 with compound stood at 0.81 nM.

On to `COc1cccc(N=c2oc3c(C)ncc(CO)c3cc2C(=O)Nc2ccccc2OC)c1`, for which the PGE2 EC50 with compound was determined as 1.48 nM.

With `C/C(=N\N(Cc1ccccc1)c1ccccc1)c1ccncc1`, the PGE2 EC50 with compound turned out to be 1.48 nM.
